# From ChEMBL document CHEMBL3885861, “Open TG-GATES”
# Species on record: Rattus norvegicus
# Experiment: Open TG-GATES - Regimen: Single
# Assay type: toxicity, organism-based, Sprague-Dawley
# Set-up: regimen Single, gender Male, age 6 weeks
# Settings: in vivo, po, 1000 mg/kg, route gavage, dose level High; for APTT / Bas / Eos / Fbg / Hb / Ht / Lym / MCH / MCHC / MCV / Mono / Neu / PT / Plat / RBC / Ret / WBC: tissue Blood; for KIDNEY_L / KIDNEY_R / KIDNEY_TOTAL: tissue Kidney; for LIVER: tissue Liver; for A/G / ALP / ALT / AST / BUN / CRE / Ca / Cl / DBIL / GLC / IP / K / LDH / Na / PL / RALB / TBIL / TC / TG / TP / gamma-GTP: tissue Plasma
structure (smiles),measurement,setting,value
C[C@H]1O[C@H](O[C@H]2[C@H](O)[C@@H](O)[C@@H](O[C@H]3[C@H](O)[C@@H](O)C(O)O[C@@H]3CO)O[C@@H]2CO)[C@H](O)[C@@H](O)[C@@H]1N[C@H]1C=C(CO)[C@@H](O)[C@H](O)[C@H]1O (some centres not stated) [ACARBOSE],TERMINAL_BW,3 h,197.2 g
same,APTT,3 h,17.5 s
same,Bas,3 h,0%
same,Eos,3 h,1%
same,Fbg,3 h,289.2 mg/dL
same,Hb,3 h,13.7 g/dL
same,Ht,3 h,42%
same,Lym,3 h,82.4%
same,MCH,3 h,20.7 pg
same,MCHC,3 h,32.7%
same,MCV,3 h,63.3 fL
same,Mono,3 h,2.2%
same,Neu,3 h,13.8%
same,PT,3 h,13.2 s
same,Plat,3 h,116 x10_4/uL
same,RBC,3 h,664 x10_4/ul
same,Ret,3 h,8%
same,WBC,3 h,88.8 x10_2/uL
same,KIDNEY_L,3 h,0.9 g
same,KIDNEY_R,3 h,0.9 g
same,KIDNEY_TOTAL,3 h,1.7 g
same,LIVER,3 h,8.2 g
same,A/G,3 h,0.9
same,ALP,3 h,1484.6 IU/L
same,ALT,3 h,38 IU/L
same,AST,3 h,73.6 IU/L
same,BUN,3 h,10.6 mg/dL
same,CRE,3 h,0.2 mg/dL
same,Ca,3 h,11 mg/dL
same,Cl,3 h,104.4 meq/L
same,DBIL,3 h,0.004 mg/dL
same,GLC,3 h,166.2 mg/dL
same,IP,3 h,10 mg/dL
same,K,3 h,4 meq/L
same,LDH,3 h,62.6 IU/L
same,Na,3 h,141.4 meq/L
same,PL,3 h,131.4 mg/dL
same,RALB,3 h,2.5 g/dL
same,TBIL,3 h,0.054 mg/dL
same,TC,3 h,71.4 mg/dL
same,TG,3 h,45.2 mg/dL
same,TP,3 h,5.2 g/dL
same,gamma-GTP,3 h,1 IU/L
same,TERMINAL_BW,6 h,198.5 g
same,APTT,6 h,17.1 s
same,Bas,6 h,0%
same,Eos,6 h,1%
same,Fbg,6 h,266.4 mg/dL
same,Hb,6 h,13.3 g/dL
same,Ht,6 h,41.1%
same,Lym,6 h,74.8%
same,MCH,6 h,20.9 pg
same,MCHC,6 h,32.5%
same,MCV,6 h,64.2 fL
same,Mono,6 h,3%
same,Neu,6 h,20.2%
same,PT,6 h,13.5 s
same,Plat,6 h,118.8 x10_4/uL
same,RBC,6 h,640.4 x10_4/ul
same,Ret,6 h,8.2%
same,WBC,6 h,81.7 x10_2/uL
same,KIDNEY_L,6 h,0.9 g
same,KIDNEY_R,6 h,0.9 g
same,KIDNEY_TOTAL,6 h,1.8 g
same,LIVER,6 h,7.8 g
same,A/G,6 h,0.9
same,ALP,6 h,1359.2 IU/L
same,ALT,6 h,34.4 IU/L
same,AST,6 h,73.8 IU/L
same,BUN,6 h,9.4 mg/dL
same,CRE,6 h,0.2 mg/dL
same,Ca,6 h,10.6 mg/dL
same,Cl,6 h,104 meq/L
same,DBIL,6 h,0.004 mg/dL
same,GLC,6 h,167.2 mg/dL
same,IP,6 h,10 mg/dL
same,K,6 h,4 meq/L
same,LDH,6 h,61.6 IU/L
same,Na,6 h,140.4 meq/L
same,PL,6 h,128.8 mg/dL
same,RALB,6 h,2.4 g/dL
same,TBIL,6 h,0.066 mg/dL
same,TC,6 h,72.2 mg/dL
same,TG,6 h,35.4 mg/dL
same,TP,6 h,5 g/dL
same,gamma-GTP,6 h,1 IU/L
same,TERMINAL_BW,9 h,195.6 g
same,APTT,9 h,17 s
same,Bas,9 h,0.4%
same,Eos,9 h,0.8%
same,Fbg,9 h,306 mg/dL
same,Hb,9 h,13.6 g/dL
same,Ht,9 h,41.9%
same,Lym,9 h,78.2%
same,MCH,9 h,20.8 pg
same,MCHC,9 h,32.3%
same,MCV,9 h,64.2 fL
same,Mono,9 h,2.2%
same,Neu,9 h,18%
same,PT,9 h,13.4 s
same,Plat,9 h,117.8 x10_4/uL
same,RBC,9 h,654.4 x10_4/ul
same,Ret,9 h,7.9%
same,WBC,9 h,87.1 x10_2/uL
same,KIDNEY_L,9 h,0.9 g
same,KIDNEY_R,9 h,0.9 g
same,KIDNEY_TOTAL,9 h,1.8 g
same,LIVER,9 h,7.4 g
same,A/G,9 h,0.9
same,ALP,9 h,1457.4 IU/L
same,ALT,9 h,36 IU/L
same,AST,9 h,75.8 IU/L
same,BUN,9 h,8.8 mg/dL
same,CRE,9 h,0.2 mg/dL
same,Ca,9 h,10.6 mg/dL
same,Cl,9 h,105.2 meq/L
same,DBIL,9 h,0.002 mg/dL
same,GLC,9 h,168.8 mg/dL
same,IP,9 h,10.1 mg/dL
same,K,9 h,3.8 meq/L
same,LDH,9 h,67.2 IU/L
same,Na,9 h,142 meq/L
same,PL,9 h,119 mg/dL
same,RALB,9 h,2.5 g/dL
same,TBIL,9 h,0.064 mg/dL
same,TC,9 h,70.8 mg/dL
same,TG,9 h,24 mg/dL
same,TP,9 h,5.3 g/dL
same,gamma-GTP,9 h,1.2 IU/L
same,TERMINAL_BW,24 h,212.7 g
same,APTT,24 h,18.7 s
same,Bas,24 h,0%
same,Eos,24 h,1.2%
same,Fbg,24 h,291.4 mg/dL
same,Hb,24 h,13.4 g/dL
same,Ht,24 h,40.9%
same,Lym,24 h,72.2%
same,MCH,24 h,20.9 pg
same,MCHC,24 h,32.6%
same,MCV,24 h,64.1 fL
same,Mono,24 h,2.8%
same,Neu,24 h,23%
same,PT,24 h,13 s
same,Plat,24 h,118.2 x10_4/uL
same,RBC,24 h,638.4 x10_4/ul
same,Ret,24 h,7.9%
same,WBC,24 h,103.5 x10_2/uL
same,KIDNEY_L,24 h,0.9 g
same,KIDNEY_R,24 h,0.9 g
same,KIDNEY_TOTAL,24 h,1.8 g
same,LIVER,24 h,9.8 g
same,A/G,24 h,0.9
same,ALP,24 h,1691 IU/L
same,ALT,24 h,44.4 IU/L
same,AST,24 h,75.4 IU/L
same,BUN,24 h,14.6 mg/dL
same,CRE,24 h,0.2 mg/dL
same,Ca,24 h,10.7 mg/dL
same,Cl,24 h,105.6 meq/L
same,DBIL,24 h,0.01 mg/dL
same,GLC,24 h,173.4 mg/dL
same,IP,24 h,7.9 mg/dL
same,K,24 h,4 meq/L
same,LDH,24 h,66.2 IU/L
same,Na,24 h,142.8 meq/L
same,PL,24 h,132.6 mg/dL
same,RALB,24 h,2.6 g/dL
same,TBIL,24 h,0.06 mg/dL
same,TC,24 h,72.2 mg/dL
same,TG,24 h,70.8 mg/dL
same,TP,24 h,5.5 g/dL
same,gamma-GTP,24 h,1 IU/L
